Results from patent US20250152566A1 (priority 2023, published 2025).
“Also recorded” adds a separate entry of the source.

Experiments:
[1] = system: fatigue symptomatology after COVID infection; experiment: Off-label therapy case descriptions (cases 1 to 3) of fatigue symptomatology after COVID infection; assay type: in vivo, human
Method: (§1) Pyridine-3,4-diamine Amifampridine (formulation as finished drug) was administered in the below-mentioned application examples. As part of the double-blind study, capsules that look the same with Amifampridine or placebo were prepared blind by a pharmacy, whereby only the pharmacy knew which capsules contained active ingredient or placebo.
The following laboratory and ECG controls for detecting substance-associated complications were inconspicuous.
In case 3, a patient is described, who suffered from fatigue symptomatology with a need for sleep of up to 2×9 hours per day, after being infected with COVID twice.

[2] = system: fatigue symptomatology in post-COVID syndrome (PCS); experiment: Further study (case series, pat. 1 to 5): Bell score and need for sleep in post-COVID syndrome under Amifampridine; assay type: in vivo, human
Description: (§2) The Bell-score (or scale) is a measure of the impediment in the case of ME & CFS. It is also suitable for long COVID patients. The Bell scale is individual because each patient has a different stress tolerance and suffering from severe symptoms at rest can be relatively different. • 100 No symptoms at rest; no symptoms with physical stress; a normal overall activity level; able to work full-time without any difficulties. • 90 No symptoms at rest; mild symptoms with physical and mental stress; a normal overall activity level; able to work full-time without any difficulties. • 80 Mild symptoms at rest; the symptoms intensify due to stress; a slight performance limitation noticeable only with activities, which are strenuous; able to work full-time in jobs, which require exertion of force, with difficulties. • 70 Mild symptoms at rest; significant limitations noticeable in the daily activities; the functional state is a total of about 90% of the norm—with the exception of activities, which require an exertion of force; able to work full-time with difficulties. • 60 Mild symptoms at rest; significant limitations in the daily activities; the functional state is a total of about 70%-90% of the norm; unable to work a full-time job if physical work is required there; however, able to work full-time if it is light work and the hours of work can be handled flexibly. • 50 Moderate symptoms at rest; moderate to severe symptoms in response to physical stress or activity; the functional state is reduced to 70% of the norm; unable to perform strenuous work, but able to perform light work or desk work for 4-5 hours daily, whereby rest periods are required. • 40 Moderate symptoms at rest; moderate to severe symptoms in response to stress or activity; the functional state is reduced to 50%-70% of the norm; unable to perform strenuous work, but able to perform light work or desk work for 3-4 hours daily, whereby rest periods are required. • 30 Moderate to severe symptoms at rest; severe symptoms in response to any stress or activity; the functional state is reduced to 50% of the norm; generally housebound; unable to perform strenuous work, but able to perform light work or desk work for 2-3 hours daily, whereby rest periods are required. • 20 Moderate to severe symptoms at rest; severe symptoms in response to any stress or activity; the functional state is reduced to 30%-50% of the norm, except for rare exceptions, unable to leave the house; bedridden for the majority of the day; unable to concentrate for more than one hour per day. • 10 Severe symptoms at rest; bedridden most of the time; leaving the house is not possible; significant cognitive symptoms, which make it impossible to concentrate. • 0 Constant severe symptoms; always bedridden; unable to perform the simplest care measures.
A further study was performed on a patient group. A reduced fatigue symptomatology was determined in this study as well in the case of post-COVID syndrome under Amifampridine.
The prevalence of a post-COVID syndrome (PCS) is 10-15% after SARS-CoV-2 infection, a large variety of functional symptoms appear in addition to specific organ diseases, predominantly a fatigue symptomatology. The latter is characterized by persistent tiredness, weakness, cognitive deficits as well as increased need for sleep. […] The Bell score, which focusses on the limitation of the vigilance, physical endurance and job, was used for the evaluation. • In the case of pat. 1 of the further study, a previous Zn. EBV infection is known, otherwise no internal or neurological preexisting conditions. Fluctuating fatigue symptomatology after SARS-CoV-2 infection in May of 2022 with a Bell score between 20 and 40, increased need for sleep with 12 hours/24 h. After taking 5 mg of Amifampridine three times within 24 h (h: hours), there was complete convalescence with a Bell score of 100, the need for sleep reduced to 7 hours/24 h. Withdrawal trials ended in a fatigue again. • In the case of pat. […]

[3] = system: fatigue symptomatology after SARS-CoV-2 infection; experiment: Patients 2.1 to 2.5: Bell score and cumulative sleep time in 24 h with and without Amifampridine; assay type: in vivo, human; conditions: for Bell score, long term: long-term medication, daily dose 20 mg to 25 mg, 5 mg each at an interval of 4 hours
Description: as §2
The following dosages of patients 2.1 to 2.5 and the changed Bell score values as well as the need for sleep in hours are illustrated in FIGS. 1 and 2 (FIG. 1 Bell-score with and without Amifampridine, patients 2.1 to 2.5, FIG. 2: cumulative sleep time in 24 h).
In the case of pat. 2.1, a psychotherapist without internal or neurological preexisting conditions, fluctuating fatigue symptomatology with a Bell score between 20 and 40 as well as increased need for sleep with 12 hours/24 h occurred after SARS-CoV-2 infection in May of 2022. After taking 5 mg of Amifampridine once, there was complete convalescence with a Bell score of 100, the need for sleep reduced to 7 hours/24 h.
After withdrawal trials (three days no Amifampridine) with recurrent fatigue, a long-term medication with a daily dose of 20 mg to 25 mg of 5 mg each at an interval of 4 hours occurred, whereby the Bell score is permanently from 90 to 100. This Bell score value can already be maintained for three quarters of a year. Taken from morning to night before going to sleep.
In the case of pat. […]

[4] = system: fatigue after SARS-CoV-2 infection; experiment: Double-blind withdrawal trial (verum/placebo, 3 days each) in pat. 2.1 and 2.2; assay type: in vivo, human; conditions: at start of the double-blind trial, already on Amifampridine (4 times 5 mg per day)
Method: as §1
In the case of pat. 2.1 and 2.2, a long-term medication with 20 mg of Amifampridine each per day were required for reconvalescence and thus offered prerequisites for a double-blind withdrawal trial for 3 days each.
Pat. 2.1 with verum on days 1-3, followed by placebo on days 4-6:
Pat. (pat. 2.1) with Bell score 90 already started with Amifampridine, as described above, and continued this with blister with […] each day, one drawer with capsules for 3 days with 4 times 5 mg of Amifampridine each. The dosage for 3 days each was placebo with 4 times placebo capsules each for patient 1 and 2 (verum and placebo).
Pat. 2.1: verum on days 1-3, followed by placebo on days 4-6: reduction of the Bell score to minimally 30 in the placebo phase, increased sleep time to 10.5 hours (FIG. 3: pat. 2.1, Bell score (line with squares with side lines of the squares parallel and perpendicular to the main line; sleep time/24 h (line with smaller squares, tips of squares point upwards/downwards as well as to the right and left). […]

LEMS patients = conditions: cited from earlier work
MS patients = conditions: described in the literature; cited from earlier work
[5] = pat. 5 (LEMS), 5 mg three or four times as daily dose
[6] = pat. 2.5 (LEMS), 60 mg, later 70 mg per day (3 times 20 mg, optionally additional 5 mg)
[7] = pat. 2.5 (LEMS), initial administration of 3×5 mg

With `Nc1ccncc1N` [Amifampridine, Pyridine-3,4-diamine] the muscular deficits ([1]; case 1) was “immediate improvement of the muscular deficits”, the “serious fatigue symptomatology existing since the COVID infection” value ([1]; case 1, need for sleep or rest up to 20 hours per day before) was “sudden improvement” and the “laboratory and ECG controls for detecting substance-associated complications” value ([1]; case 2) was “inconspicuous”. For the same compound, the ability to concentrate ([1]; case 2, 5 mg of Amifampridine) was “complete restitution of the ability to concentrate”, the assignable side effects ([1]; case 2, 5 mg of Amifampridine) was “Slight perioral paresthesias” and the fatigue symptomatology ([1]; case 2, 5 mg of Amifampridine) was “complete improvement of the fatigue symptomatology”. The existing fatigue ([1]; case 2, daily dose of 3×5 mg) was “ceases completely”, the ability to concentrate ([1]; case 3, 5 mg of Amifampridine) was “sudden improvement of the ability to concentrate” and the side effects ([1]; case 3, 5 mg of Amifampridine) was “Transient perioral paresthesias with very low intensity”. For the same compound, the “need for sleep and rest” value ([1]; case 3, 5 mg of Amifampridine, before up to 2×9 hours per day) was “physiological need for sleep and rest”, the need for sleep ([2]; pat. 1, after 5 mg three times within 24 h, before 12) was 7 hours/24 h and the Bell score ([2]; pat. 1, after 5 mg three times within 24 h, before 20 to 40) was 100. The vigilance ([2]; pat. 2, after 5 mg three times) was “unlimited vigilance”, the need for sleep ([2]; pat. 2, after 5 mg three times, before 12) was 7.5 hours/24 h and the Bell score ([2]; pat. 2, after 5 mg three times, before 40) was 100. For the same compound, the “duration of the effect” value ([2]; pat. 3, after taking 5 mg) was “about 36 hours”, the need for sleep ([2]; pat. 3, after taking 5 mg, before 11 to 12 hours/24 h) was 7 to 9 h and the Bell score ([2]; pat. 3, after taking 5 mg, before 40) was 100. The Bell score ([2]; pat. 4 (post-COVID myocarditis), 5 mg three times within 24 h, before 20) was 50, the need for sleep ([2]; pat. 4, 5 mg three times within 24 h, before 12 to 14) was 8 to 10 hours/24 h and the fatigue [2, 5] was “the fatigue ceased”. The muscular endurance [2, 5] was “improved muscular endurance”, the need for sleep ([2]; pat. 5 (LEMS), 5 mg three or four times as daily dose, before 16 to 18) was 8-9 hours/24 h and the need for sleep ([3]; pat. 2.1, after taking 5 mg once, before 12) was 7 hours/24 h. For the same compound, the Bell score ([3]; pat. 2.1, after taking 5 mg once, before 20 to 40) was 100, the “Bell score, long term” value ([3]; pat. 2.1, held for three quarters of a year) was 90 to 100 and the “duration of the effect” value ([3]; pat. 2.2, after taking 5 mg) was “about 36 hours”. The need for sleep ([3]; pat. 2.2, after taking 5 mg, before 11-12 hours/24 h) was 7 to 9 h, the Bell score ([3]; pat. 2.2, after taking 5 mg, before 40) was 80 and the “Bell score, long term” value ([3]; pat. 2.2, past month) was 90 to 100. The vigilance ([3]; pat. 2.3, after 5 mg) was “unlimited vigilance”, the need for sleep ([3]; pat. 2.3, after 5 mg, before 12) was 7.5 hours/24 h and the Bell score ([3]; pat. 2.3, after 5 mg, before 40) was 100. The “Bell score with regard to fatigue” value [3, 6] was 70 to 80, the “Bell score with regard to the muscular deficits” value [3, 6] was “approx. 20” and the fatigue [3, 7] was “the fatigue ceased”. For the same compound, the muscular endurance [3, 7] was “improved muscular endurance”, the Bell score ([3]; pat. 2.5 (LEMS), initial administration of 3×5 mg, before 10) was 80 and the need for sleep ([3]; pat. 2.5 (LEMS), initial administration of 3×5 mg, before 16-18) was 8-9 hours/24 h. For the same compound, the Bell score ([3]; patient 2.4 (post-COVID myocarditis), after 5 mg, before 20) was 50, the need for sleep ([3]; patient 2.4, after 5 mg, before 12-14) was 8 to 10 hours/24 h and the Bell score [4] was 90. For the same compound, the “co-indicated / coincident fatigue of LEMS patients” value (LEMS patients; LEMS patients) was “improvement of a co-indicated fatigue”.
In the case of `Nc1ccncc1` [Fampridine], the “accompanying fatigue symptomatology in MS patients” value (MS patients) is listed as “improvement of an accompanying fatigue symptomatology; also recorded: favorable effects”.
In the case of Amifampridine Phosphate, the “coincident fatigue with LEMS” value (LEMS patients; as phosphates, 20 to 80 mg as daily doses, J Clin Neuromuscul Dis. 2019) is given as “Improvement of a coincident fatigue”.
